According to paper PMC4833812, “Incorporation of tryptophan analogues into the lantibiotic nisin” (Amino Acids, 2016):

Assays:
[1] = test system: L. lactis MG1363; test: MIC test against indicator strain L. lactis MG1363; type: cell-based, Lactococcus lactis; settings: for Change of antimicrobial activity, in words: I1 variants compared to I1W, I4 variant compared to nisin
Protocol: The indicator strain L. lactis MG1363 was first streaked on a GM17 plate and cultured overnight. Before testing the MIC, three to five colonies were picked and cultured with GM17 medium until OD600 reached 0.5. The culture was diluted 500 times with GM17 and mixed with the same volume of peptides dissolved in GM17. The MIC value test was performed according to Wiegand et al. ([2008]).

[2] = Retention time in reverse phase chromatography (HPLC); type: physicochemical; settings: reverse phase HPLC as described previously (Zhou et al. 2015); used by the paper to reflect changed hydrophobicity/polarity of the variants
Protocol: To obtain pure peptides for activity tests, the supernatant of 100 ml culture (filtered with 0.2 µm filter, Millipore) was first incubated with 5 ml supernatant of NisP (filtered) at 30 °C for 1 h to cut off the leader part and then purified with cation-ion exchange (HiTrap SP FF, GE healthcare) (van Heel et al. [2013]). The elutions were further loaded on a C18 column (Spherical C18, Sigma- Aldrich). The column was washed and eluted with different concentrations of solution B (solution A, milliQ with 0.1 % TFA; solution B, isopropanol: acetonitrile (2:1) with 0.1 % TFA). The elutions which were active against L. lactis were freeze-dried and further purified with HPLC as described previously (Zhou et al. [2015]). The fractions containing the peaks in the HPLC chromatogram were analysed by activity tests and MALDI-TOF (van Heel et al. [2013]). The peak which was active and contained the pure peptide with right mass was freeze-dried and quantified with HPLC as described previously (Zhou et al. [2015]).
Nisin is a positively charged and hydrophobic molecule. […] This difference was reflected by the elution time of the peptides in cation-ion exchange and reverse phase chromatography (HPLC). The variants with 5HW were eluted about half column volume earlier than other variants during cation-ion exchange (data not shown).

[3] = test system: Micrococcus flavus; settings: ref Kuipers et al. 1995; Demel et al. 1996; Van Kraaij et al. 1997; Breukink et al. 1998; cited from earlier work
Text: (§1) The first two rings of nisin can bind to lipid II which is essential for cell wall synthesis. The C-terminus of nisin can insert into the membrane enabling pore formation (Breukink and de Kruijff [2006]). Mutagenesis of nisin has been conducted extensively and several residues have been mutated to tryptophan, e.g. I1W, M17W and V32W, which all reduce nisin activity but not dramatically, against Micrococcus flavus by two to three times and against Streptococcus thermophilus by three to eigh ... || The first two rings of nisin can bind to lipid II by forming a pyrophosphate cage (Hsu et al. [2004]).

[4] = test system: Streptococcus thermophilus; settings: ref Kuipers et al. 1995; Demel et al. 1996; Van Kraaij et al. 1997; Breukink et al. 1998; cited from earlier work
Text: as §1

Compound	Change of antimicrobial activity, in words ([1]; listed as 5FW analogue of I1W)	Change of antimicrobial activity, in words ([1]; listed as 5FW labelled I1W)	Reduction of antimicrobial activity compared to nisin ([1]; from MIC values)	Retention time of HPLC [2] [min]	Reduction of antimicrobial activity compared to I1W ([1]; from MIC values)	Reduction of nisin activity against Micrococcus flavus [3]	Reduction of nisin activity against Streptococcus thermophilus [4]
C=C(NC(=O)[C@@H](NC(=O)[C@H](Cc1c[nH]cn1)NC(=O)[C@@H](NC(=O)[C@H](CO)NC(=O)[C@@H]1CS[C@@H](C)[C@H]2NC(=O)[C@H](C)NC(=O)[C@H](NC(=O)[C@H](CCCCN)NC(=O)[C@H](CCSC)NC(=O)[C@H](CC(N)=O)NC(=O)[C@@H]3CS[C@@H](C)[C@@H](NC(=O)[C@H](CCCCN)NC(=O)[C@@H]4CS[C@@H](C)[C@@H](NC(=O)[C@@H]5CSC[C@@H](NC(=O)/C(=C/C)NC(=O)[C@@H](N)Cc6c[nH]c7ccc(F)cc67)C(=O)N[C@@H]([C@@H](C)CC)C(=O)NC(=C)C(=O)N[C@@H](CC(C)C)C(=O)N5)C(=O)N5CCC[C@H]5C(=O)NCC(=O)N4)C(=O)NCC(=O)N[C@@H](C)C(=O)N[C@@H](CC(C)C)C(=O)N[C@@H](CCSC)C(=O)NCC(=O)N3)[C@H](C)SC[C@H](NC2=O)C(=O)N[C@@H](Cc2c[nH]cn2)C(=O)N1)[C@@H](C)CC)C(C)C)C(=O)N[C@@H](CCCCN)C(=O)O [I1-5FW]	did not change the activity	the same activity	two	38.9			
C=C(NC(=O)[C@@H](NC(=O)[C@H](Cc1c[nH]cn1)NC(=O)[C@@H](NC(=O)[C@H](CO)NC(=O)[C@@H]1CS[C@@H](C)[C@H]2NC(=O)[C@H](C)NC(=O)[C@H](NC(=O)[C@H](CCCCN)NC(=O)[C@H](CCSC)NC(=O)[C@H](CC(N)=O)NC(=O)[C@@H]3CS[C@@H](C)[C@@H](NC(=O)[C@H](CCCCN)NC(=O)[C@@H]4CS[C@@H](C)[C@@H](NC(=O)[C@@H]5CSC[C@@H](NC(=O)/C(=C/C)NC(=O)[C@@H](N)Cc6c[nH]c7ccc(O)cc67)C(=O)N[C@@H]([C@@H](C)CC)C(=O)NC(=C)C(=O)N[C@@H](CC(C)C)C(=O)N5)C(=O)N5CCC[C@H]5C(=O)NCC(=O)N4)C(=O)NCC(=O)N[C@@H](C)C(=O)N[C@@H](CC(C)C)C(=O)N[C@@H](CCSC)C(=O)NCC(=O)N3)[C@H](C)SC[C@H](NC2=O)C(=O)N[C@@H](Cc2c[nH]cn2)C(=O)N1)[C@@H](C)CC)C(C)C)C(=O)N[C@@H](CCCCN)C(=O)O [I1-5HW]			four	35.0	two		
C=C(NC(=O)[C@@H](NC(=O)[C@H](Cc1c[nH]cn1)NC(=O)[C@@H](NC(=O)[C@H](CO)NC(=O)[C@@H]1CS[C@@H](C)[C@H]2NC(=O)[C@H](C)NC(=O)[C@H](NC(=O)[C@H](CCCCN)NC(=O)[C@H](CCSC)NC(=O)[C@H](CC(N)=O)NC(=O)[C@@H]3CS[C@@H](C)[C@@H](NC(=O)[C@H](CCCCN)NC(=O)[C@@H]4CS[C@@H](C)[C@@H](NC(=O)[C@@H]5CSC[C@@H](NC(=O)/C(=C/C)NC(=O)[C@@H](N)Cc6c[nH]c7ccccc67)C(=O)N[C@@H]([C@@H](C)CC)C(=O)NC(=C)C(=O)N[C@@H](CC(C)C)C(=O)N5)C(=O)N5CCC[C@H]5C(=O)NCC(=O)N4)C(=O)NCC(=O)N[C@@H](C)C(=O)N[C@@H](CC(C)C)C(=O)N[C@@H](CCSC)C(=O)NCC(=O)N3)[C@H](C)SC[C@H](NC2=O)C(=O)N[C@@H](Cc2c[nH]cn2)C(=O)N1)[C@@H](C)CC)C(C)C)C(=O)N[C@@H](CCCCN)C(=O)O [I1-W]			two	38.0		two to three	three to eight
C=C(NC(=O)[C@@H](NC(=O)[C@H](Cc1c[nH]cn1)NC(=O)[C@@H](NC(=O)[C@H](CO)NC(=O)[C@@H]1CS[C@@H](C)[C@H]2NC(=O)[C@H](C)NC(=O)[C@H](NC(=O)[C@H](CCCCN)NC(=O)[C@H](CCSC)NC(=O)[C@H](CC(N)=O)NC(=O)[C@@H]3CS[C@@H](C)[C@@H](NC(=O)[C@H](CCCCN)NC(=O)[C@@H]4CS[C@@H](C)[C@@H](NC(=O)[C@@H]5CSC[C@@H](NC(=O)/C(=C/C)NC(=O)[C@@H](N)[C@@H](C)CC)C(=O)N[C@@H]([C@@H](C)CC)C(=O)NC(=C)C(=O)N[C@@H](CC(C)C)C(=O)N5)C(=O)N5CCC[C@H]5C(=O)NCC(=O)N4)C(=O)NCC(=O)N[C@@H](C)C(=O)N[C@@H](CC(C)C)C(=O)N[C@@H](Cc4c[nH]c5ccccc45)C(=O)NCC(=O)N3)[C@H](C)SC[C@H](NC2=O)C(=O)N[C@@H](Cc2c[nH]cn2)C(=O)N1)[C@@H](C)CC)C(C)C)C(=O)N[C@@H](CCCCN)C(=O)O [M17-W]			32 times	38.5		two to three	three to eight
C=C(NC(=O)[C@@H](NC(=O)[C@H](Cc1c[nH]cn1)NC(=O)[C@@H](NC(=O)[C@H](CO)NC(=O)[C@@H]1CS[C@@H](C)[C@H]2NC(=O)[C@H](C)NC(=O)[C@H](NC(=O)[C@H](CCCCN)NC(=O)[C@H](CCSC)NC(=O)[C@H](CC(N)=O)NC(=O)[C@@H]3CS[C@@H](C)[C@@H](NC(=O)[C@H](CCCCN)NC(=O)[C@@H]4CS[C@@H](C)[C@@H](NC(=O)[C@@H]5CSC[C@@H](NC(=O)/C(=C/C)NC(=O)[C@@H](N)[C@@H](C)CC)C(=O)N[C@@H]([C@@H](C)CC)C(=O)NC(=C)C(=O)N[C@@H](CC(C)C)C(=O)N5)C(=O)N5CCC[C@H]5C(=O)NCC(=O)N4)C(=O)NCC(=O)N[C@@H](C)C(=O)N[C@@H](CC(C)C)C(=O)N[C@@H](Cc4c[nH]c5ccc(O)cc45)C(=O)NCC(=O)N3)[C@H](C)SC[C@H](NC2=O)C(=O)N[C@@H](Cc2c[nH]cn2)C(=O)N1)[C@@H](C)CC)C(C)C)C(=O)N[C@@H](CCCCN)C(=O)O [M17-5HW]			32 times	37.2			
